Patent US12398178B2, “Collections of peptides, peptide agents, and methods of use thereof” (Parabilis Medicines, Inc., priority 2018, dated 2025)
Starred links: 1 amine or outer side, 2 acyl side, 3 side chain; linkers in the order of their positions; H or OH if unused. Positions of bridges follow the written chain, without caps; N, C: chain ends. Residues, ends and D or L forms follow the SMILES beside them. No end group written: not given here. Phenylene(1,4-NHCOCH2)2 = O=C(C[*:1])Nc1ccc(NC(=O)C[*:2])cc1; X2 = O=C(C[*:1])O[C@@H]1CC[C@H](OC(=O)C[*:2])C1; X6 = O=C(C[*:1])Nc1cc(Cl)c(NC(=O)C[*:2])cc1Cl; X8 = COc1cc(NC(=O)C[*:2])c(OC)cc1NC(=O)C[*:1]; X3 = O=C(C[*:1])Nc1ccccc1NC(=O)C[*:2]

Columns and labels:
full-length β-Catenin = molecular target: T1, full-length β-Catenin (Homo sapiens, UniProt P35222); experiment: Competition fluorescence polarization assay for binding to beta-catenin (displacement of FITC labeled Axin peptide probe); settings: 15 nM full-length β-Catenin, 20 nM FITC labeled Axin peptide probe, 3-fold serial dilution from 5 μM; read-out: bCat EC50
T1 construct: Probe solution (15 nM full-length β-Catenin, 20 nM FITC labeled Axin peptide in buffer)
T1 sequence (P35222 1-781): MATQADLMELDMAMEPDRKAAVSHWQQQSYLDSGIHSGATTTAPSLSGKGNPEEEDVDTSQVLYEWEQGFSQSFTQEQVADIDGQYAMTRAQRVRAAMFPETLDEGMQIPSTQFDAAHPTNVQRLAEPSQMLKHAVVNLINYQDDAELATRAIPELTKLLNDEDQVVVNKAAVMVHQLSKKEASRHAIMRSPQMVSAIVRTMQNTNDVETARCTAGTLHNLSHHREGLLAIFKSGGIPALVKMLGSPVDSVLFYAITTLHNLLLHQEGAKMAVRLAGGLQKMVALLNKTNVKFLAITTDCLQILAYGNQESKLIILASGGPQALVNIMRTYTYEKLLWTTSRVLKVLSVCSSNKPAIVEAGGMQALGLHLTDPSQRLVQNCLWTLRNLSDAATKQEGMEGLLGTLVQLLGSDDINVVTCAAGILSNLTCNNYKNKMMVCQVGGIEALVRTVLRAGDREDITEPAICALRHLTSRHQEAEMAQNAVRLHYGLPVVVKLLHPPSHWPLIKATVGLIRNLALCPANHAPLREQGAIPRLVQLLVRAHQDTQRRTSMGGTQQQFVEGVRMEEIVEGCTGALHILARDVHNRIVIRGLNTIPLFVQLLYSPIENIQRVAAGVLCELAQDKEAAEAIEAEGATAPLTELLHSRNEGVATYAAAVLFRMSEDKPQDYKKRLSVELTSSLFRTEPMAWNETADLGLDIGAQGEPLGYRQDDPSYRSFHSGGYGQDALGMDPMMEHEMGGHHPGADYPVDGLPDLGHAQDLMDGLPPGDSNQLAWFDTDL
Description: Peptide assessment: In one assay for assessing binding to beta-catenin, peptide solutions were prepared in buffer (50 mM Tris pH 8.0, 250 mM NaCl, 2% glycerol, 0.5 mM EDTA, 0.02% w/v sodium azide) using a 3-fold serial dilution from 5 μM. Probe solution (15 nM full-length β-Catenin, 20 nM FITC labeled Axin peptide in buffer ([FAM-PEG1-RRWPR(S5)ILD(S5)HVRRVWR (SEQ ID NO: 44)] where the two S5 residues are stapled, as reported in: Proc Natl Acad Sci USA. 2012 Oct. 30; 109(44):17942-7)) was prepared and incubated for 5 minutes, then 40 μL per well plated in a black polystyrene 384-well plate (Corning). Equal volume of the titrated peptide was added to the plate and incubated protected from light for 15 minutes prior to read. Reads were performed on a Spectramax M5 (Molecular Devices) in duplicate.

[1] = Measurement of LogD (CHI logD by HPLC); format: physicochemical; settings: CHI log D, 50 mM ammonium acetate pH 7.4 / acetonitrile gradient, C-18 column, 25° C.
Description: Measurement of LogD: LogD values were measured on a Agilent 1260 HPLC with UV detector (254, 220 nm), using a Gemini NX C-18 50×3 mm column (Phenomenex) with a 6-minute 0-100% mobile phase gradient of A) 50 mM ammonium acetate pH 7.4 and B) Acetonitrile at 25° C. with a flow rate of 1 mL/min and injection volume of 3-5 uL.

EC50 (full-length β-Catenin) [µM] | chromatographic logD [1] | Molecule
> 10 | 0.75 | CC(C)C[C@@H]1NC(=O)[C@H](C)NC(=O)[C@H](C)NC(=O)[C@H](Cc2c[nH]c3ccccc23)NC(=O)[C@H](CCC(=O)O)NC(=O)[C@@H](NC(=O)[C@H](CCCNC(=N)N)NC(=O)[C@H](Cc2c[nH]cn2)NC(=O)[C@@H](NC(=O)[C@H](C)NC(=O)[C@@H]2CCCN2C(=O)[C@H](CC(=O)O)NC(=O)[C@H](C)N)[C@@H](C)O)CSCC(=O)O[C@@H]2C=C[C@@H](C2)OC(=O)CSC[C@@H](C(=O)N[C@@H](CCC(=O)O)C(=O)N[C@@H](CC(C)C)C(=O)N[C@H](C(N)=O)C(C)C)NC(=O)[C@H](Cc2c[nH]cn2)NC1=O [Compound 39]
> 10 | 0.91 | CC[C@H](C)[C@@H]1NC(=O)[C@H](CC(C)C)NC(=O)[C@H](C)NC(=O)[C@H](C)NC(=O)[C@H](Cc2c[nH]cn2)NC(=O)[C@H](CCC(=O)O)NC(=O)[C@@H](NC(=O)[C@H](C)NC(=O)[C@H](Cc2c[nH]c3ccccc23)NC(=O)[C@H](CC(C)C)NC(=O)[C@H](C)NC(=O)[C@@H]2CCCN2C(=O)[C@H](CC(=O)O)NC(=O)[C@H](C)N)CSCC(=O)O[C@@H]2CC[C@@H](C2)OC(=O)CSC[C@@H](C(=O)N[C@@H](CCC(=O)O)C(=O)N[C@H](C(=O)N[C@@H](CCC(N)=O)C(N)=O)[C@@H](C)O)NC1=O [Compound 47] (H-ADPALWACEHAALICETQ-NH2; linker 8-15 via X2; N-terminus and C-terminus assumed)
5.17 | 0.61 | CC(C)C[C@@H]1NC(=O)[C@H](C)NC(=O)[C@H](C)NC(=O)[C@H](Cc2c[nH]c3ccccc23)NC(=O)[C@H](CCC(=O)O)NC(=O)[C@@H](NC(=O)[C@H](CCCNC(=N)N)NC(=O)[C@H](Cc2c[nH]cn2)NC(=O)[C@@H](NC(=O)[C@H](C)NC(=O)[C@@H]2CCCN2C(=O)[C@H](CC(=O)O)NC(=O)[C@H](C)N)[C@@H](C)O)CSCC(=O)Nc2cc(F)c(cc2F)NC(=O)CSC[C@@H](C(=O)N[C@@H](CCC(=O)O)C(=O)N[C@@H](CC(C)C)C(=O)N[C@H](C(N)=O)C(C)C)NC(=O)[C@H](Cc2c[nH]cn2)NC1=O [Compound 32]
> 10 | 0.8 | CC(C)C[C@@H]1NC(=O)[C@H](C)NC(=O)[C@H](C)NC(=O)[C@H](Cc2c[nH]c3ccccc23)NC(=O)[C@H](CCC(=O)O)NC(=O)[C@@H](NC(=O)[C@H](CCCNC(=N)N)NC(=O)[C@H](Cc2c[nH]cn2)NC(=O)[C@@H](NC(=O)[C@H](C)NC(=O)[C@@H]2CCCN2C(=O)[C@H](CC(=O)O)NC(=O)[C@H](C)N)[C@@H](C)O)CSCC(=O)O[C@@H]2CC[C@@H](C2)OC(=O)CSC[C@@H](C(=O)N[C@@H](CCC(=O)O)C(=O)N[C@@H](CC(C)C)C(=O)N[C@H](C(N)=O)C(C)C)NC(=O)[C@H](Cc2c[nH]cn2)NC1=O [Compound 38]
– | 0.7 | CC[C@H](C)[C@@H]1NC(=O)[C@H](CC(C)C)NC(=O)[C@H](C)NC(=O)[C@H](C)NC(=O)[C@H](Cc2c[nH]cn2)NC(=O)[C@H](CCC(=O)O)NC(=O)[C@@H](NC(=O)[C@H](C)NC(=O)[C@H](Cc2c[nH]c3ccccc23)NC(=O)[C@H](CC(C)C)NC(=O)[C@H](C)NC(=O)[C@@H]2CCCN2C(=O)[C@H](CC(=O)O)NC(=O)[C@H](C)N)CSCC(=O)Nc2ccccc2NC(=O)CSC[C@@H](C(=O)N[C@@H](CCC(=O)O)C(=O)N[C@H](C(=O)N[C@@H](CCC(N)=O)C(N)=O)[C@@H](C)O)NC1=O [Compound 44] (H-ADPALWACEHAALICETQ-NH2; linker 8-15 via X3; N-terminus and C-terminus assumed)
– | 0.75 | CC[C@H](C)[C@@H]1NC(=O)[C@H](CC(C)C)NC(=O)[C@H](C)NC(=O)[C@H](C)NC(=O)[C@H](Cc2c[nH]cn2)NC(=O)[C@H](CCC(=O)O)NC(=O)[C@@H](NC(=O)[C@H](C)NC(=O)[C@H](Cc2c[nH]c3ccccc23)NC(=O)[C@H](CC(C)C)NC(=O)[C@H](C)NC(=O)[C@@H]2CCCN2C(=O)[C@H](CC(=O)O)NC(=O)[C@H](C)N)CSCC(=O)Nc2cc(OC)c(cc2OC)NC(=O)CSC[C@@H](C(=O)N[C@@H](CCC(=O)O)C(=O)N[C@H](C(=O)N[C@@H](CCC(N)=O)C(N)=O)[C@@H](C)O)NC1=O [Compound 43] (H-ADPALWACEHAALICETQ-NH2; linker 8-15 via X8; N-terminus and C-terminus assumed)

More lines, now with the values behind:

Molecule | EC50 (full-length β-Catenin) [µM] | chromatographic logD [1]
GPAKPEAPGEDASPDELMHYYTSLEDYLDHVP-NH2 (C-terminus assumed) [Compound 18] | > 10 | 0.52
GPAKPEAPGEDASPQELHDYYEILDNYLDWVA-NH2 (C-terminus assumed) [Compound 26] | > 10 | 0.87
GPAKPEAPGEDASPDELTYYYDELRDYLYSVA-NH2 (C-terminus assumed) [Compound 19] | > 10 | 0.82
CC(C)C[C@@H]1NC(=O)[C@H](C)NC(=O)[C@H](C)NC(=O)[C@H](Cc2c[nH]c3ccccc23)NC(=O)[C@H](CCC(=O)O)NC(=O)[C@@H](NC(=O)[C@H](CCCNC(=N)N)NC(=O)[C@H](Cc2c[nH]cn2)NC(=O)[C@@H](NC(=O)[C@H](C)NC(=O)[C@@H]2CCCN2C(=O)[C@H](CC(=O)O)NC(=O)[C@H](C)N)[C@@H](C)O)CSCC(=O)N(C)c2ccc(cc2)N(C)C(=O)CSC[C@@H](C(=O)N[C@@H](CCC(=O)O)C(=O)N[C@@H](CC(C)C)C(=O)N[C@H](C(N)=O)C(C)C)NC(=O)[C@H](Cc2c[nH]cn2)NC1=O [Compound 31] | > 10 | 0.68
GPAKPEAPGEDASPDELYYYYDDLRQYLSTVA-NH2 (C-terminus assumed) [Compound 23] | > 10 | 0.81
GPAKPEAPGEDASPDELIFYYDHLSRYLTDVA-NH2 (C-terminus assumed) [Compound 20] | > 10 | 0.91
GPAKPEAPGEDASPIELWEYYESLETYLDNVA-NH2 (C-terminus assumed) [Compound 29] | > 10 | 0.73
CC[C@H](C)[C@@H]1NC(=O)[C@H](CC(C)C)NC(=O)[C@H](C)NC(=O)[C@H](C)NC(=O)[C@H](Cc2c[nH]cn2)NC(=O)[C@H](CCC(=O)O)NC(=O)[C@@H](NC(=O)[C@H](C)NC(=O)[C@H](Cc2c[nH]c3ccccc23)NC(=O)[C@H](CC(C)C)NC(=O)[C@H](C)NC(=O)[C@@H]2CCCN2C(=O)[C@H](CC(=O)O)NC(=O)[C@H](C)N)CSCC(=O)Nc2cc(Cl)c(cc2Cl)NC(=O)CSC[C@@H](C(=O)N[C@@H](CCC(=O)O)C(=O)N[C@H](C(=O)N[C@@H](CCC(N)=O)C(N)=O)[C@@H](C)O)NC1=O [Compound 42] (H-ADPALWACEHAALICETQ-NH2; linker 8-15 via X6; N-terminus and C-terminus assumed) | – | 0.84
CC(C)C[C@@H]1NC(=O)[C@H](C)NC(=O)[C@H](C)NC(=O)[C@H](Cc2c[nH]c3ccccc23)NC(=O)[C@H](CCC(=O)O)NC(=O)[C@@H](NC(=O)[C@H](CCCNC(=N)N)NC(=O)[C@H](Cc2c[nH]cn2)NC(=O)[C@@H](NC(=O)[C@H](C)NC(=O)[C@@H]2CCCN2C(=O)[C@H](CC(=O)O)NC(=O)[C@H](C)N)[C@@H](C)O)CSCC(=O)Nc2ccc(cc2)NC(=O)CSC[C@@H](C(=O)N[C@@H](CCC(=O)O)C(=O)N[C@@H](CC(C)C)C(=O)N[C@H](C(N)=O)C(C)C)NC(=O)[C@H](Cc2c[nH]cn2)NC1=O [Compound 1] | – | 0.57
CC(C)C[C@@H]1NC(=O)[C@H](C)NC(=O)[C@H](C)NC(=O)[C@H](Cc2c[nH]cn2)NC(=O)[C@H](CCC(=O)O)NC(=O)[C@@H](NC(=O)[C@H](CCC(N)=O)NC(=O)[C@H](Cc2c[nH]c3ccccc23)NC(=O)[C@@H]2CCCN2C(=O)[C@H](C)NC(=O)[C@@H]2CCCN2C(=O)[C@H](CC(=O)O)NC(=O)[C@H](C)N)CSCC(=O)Nc2ccc(cc2)NC(=O)CSC[C@@H](C(=O)N[C@@H](CCC(=O)O)C(=O)N[C@@H](CC(C)C)C(=O)N[C@@H](CCC(=O)O)C(N)=O)NC(=O)[C@H](CC(C)C)NC1=O [Compound 11] (H-ADPAPWQCEHAALLCELE-NH2; linker 8-15 via Phenylene(1,4-NHCOCH2)2; N-terminus and C-terminus assumed) | – | 0.47
